From publication PMC8286840, “Identifying SARS-CoV-2 antiviral compounds by screening for small molecule inhibitors of Nsp3 papain-like protease” (Biochemical Journal, 2021) come the findings set out here.

Where a name gives a salt, the structure may show the parent alone. Read-outs that look alike come from different tables or passages of the source.

For assay [1], the target named is T1, SARS-CoV-2 PLpro (nsp3 1564–1878) (Severe acute respiratory syndrome coronavirus 2, UniProt P0DTD1). Kind of assay: biochemical. Further details: FRET-quenched peptide (Pro3) cleavage by PLpro, 10 min pre-incubation, slope over 20 min, normalised to no-compound control. As to conditions: high concentration screen, read-out: % of control remaining.
The target in assay [2] is T1, SARS-CoV-2 PLpro (nsp3 1564–1878). Kind of assay: biochemical. Details: FRET-quenched peptide (Pro3) cleavage by PLpro, 10 min pre-incubation, slope over 20 min, normalised to no-compound control. As to conditions: low concentration screen, read-out: % of control remaining.

Consider `CC(=O)OCC(=O)[C@@]1(O)CC[C@H]2[C@@H]3CCC4=CC(=O)CC[C@]4(C)[C@H]3[C@@H](O)C[C@@]21C` [Hydrocortisone 21-acetate], for which, in assay [1] (Well no.=2214), the remaining activity at 3.75 µM came out at 101%. In addition, the remaining activity at 1.25 µM in assay [2] (Well no.=2214) came to 100%.
On to `C[C@]12CCC(=O)C=C1CC[C@@H]1[C@@H]2[C@@H](O)C[C@@]2(C)[C@H]1CC[C@]2(O)C(=O)COC(=O)CCC(=O)O` [Hydrocortisone 21-hemisuccinate sodium salt], for which, in assay [1] (Well no.=5653), the remaining activity at 3.75 µM turned out to be 102%. The remaining activity at 1.25 µM in assay [2] (Well no.=5653) turned out to be 99%.
`C[C@]12CCC(=O)C=C1CC[C@@H]1[C@@H]2[C@@H](O)C[C@@]2(C)[C@H]1CC[C@]2(O)C(=O)COC(=O)CCC(=O)O` [Hydrocortisone 21-hemisuccinate sodium]: in assay [1] (Well no.=704), the remaining activity at 3.75 µM was found to be 93.3%. The remaining activity at 1.25 µM in assay [2] (Well no.=704) came out at 92.7%.
For `CC(=O)OCC(=O)[C@@]1(O)CC[C@H]2[C@@H]3CCC4=CC(=O)CC[C@]4(C)[C@H]3[C@@H](O)C[C@@]21C` [Hydrocortisone (acetate)], the remaining activity at 3.75 µM in assay [1] (Well no.=7342) came to 109%. The remaining activity at 1.25 µM in assay [2] (Well no.=7342) turned out to be 105%.
Regarding `CCCC(=O)O[C@]1(C(=O)CO)CC[C@H]2[C@@H]3CCC4=CC(=O)CC[C@]4(C)[C@H]3[C@@H](O)C[C@@]21C` [Hydrocortisone butyrate], in assay [1] (Well no.=5418), the remaining activity at 3.75 µM came to 98.8%. Further, in assay [2] (Well no.=5418), the remaining activity at 1.25 µM amounted to 94.8%.
For the compound `C[C@]12CCC(=O)C=C1CC[C@@H]1[C@@H]2[C@@H](O)C[C@@]2(C)[C@H]1CC[C@]2(O)C(=O)CO` [Hydrocortisone], the remaining activity at 3.75 µM in assay [1] (Well no.=562) was found to be 101%; in assay [1] (Well no.=2212), 96%; in assay [1] (Well no.=6439) it was 102%; in assay [1] (Well no.=7331), 93.7%. In addition, the remaining activity at 1.25 µM was 101% in assay [2] (Well no.=562), 93% in assay [2] (Well no.=2212), 99.3% in assay [2] (Well no.=6439) and 93.2% in assay [2] (Well no.=7331).
Turning to `COc1c2c(cc3c1OCO3)CCN(C)C2` [Hydrocotarnine HBr], in assay [1] (Well no.=3462), the remaining activity at 3.75 µM turned out to be 103%. Besides, the remaining activity at 1.25 µM in assay [2] (Well no.=3462) came out at 102%.
Regarding `Oc1ccc(O)cc1` [Hydroquinone], the figures for the remaining activity at 3.75 µM in assay [1] (Well no.=472) and in assay [1] (Well no.=3849) were 99.1% and 106%, respectively. For the same compound, the remaining activity at 1.25 µM in assay [2] (Well no.=472) turned out to be 102%; in assay [2] (Well no.=3849), 105%.
For the compound `Nc1c2c(nc3ccccc13)CCCC2O` (centres unmarked) [Hydroxytacrine maleate], in assay [1] (Well no.=514), the remaining activity at 3.75 µM is 101%. The remaining activity at 1.25 µM in assay [2] (Well no.=514) stood at 102%.
As for `Nc1c2c(nc3ccccc13)CCCC2O` (centres unmarked) [Hydroxytacrine], in assay [1] (Well no.=1671), the remaining activity at 3.75 µM was found to be 103%. Also, the remaining activity at 1.25 µM in assay [2] (Well no.=1671) came out at 103%.
On to `NC(=O)NO` [Hydroxyurea], for which the remaining activity at 3.75 µM in assay [1] (Well no.=566) is 96.1%; in assay [1] (Well no.=6544), 100%. Moreover, the remaining activity at 1.25 µM in assay [2] (Well no.=566) stood at 97.4%; in assay [2] (Well no.=6544), 103%.
As to `OCCOCCN1CCN(C(c2ccccc2)c2ccc(Cl)cc2)CC1` (centres unmarked) [Hydroxyzine 2HCl], the remaining activity at 3.75 µM in assay [1] (Well no.=5082) turned out to be 99.9%. Further, the remaining activity at 1.25 µM in assay [2] (Well no.=5082) came to 98.5%.
For `OCCOCCN1CCN(C(c2ccccc2)c2ccc(Cl)cc2)CC1` (centres unmarked) [Hydroxyzine (dihydrochloride)], in assay [1] (Well no.=6901), the remaining activity at 3.75 µM was 98%. In addition, the remaining activity at 1.25 µM in assay [2] (Well no.=6901) was determined as 100%.
In the case of `CN[C@H]1C[C@@H](N)[C@H](O)[C@@H](O[C@@H]2O[C@H](CO)[C@H](O)[C@@H]3OC4(O[C@H]23)O[C@H]([C@@H](N)CO)[C@H](O)[C@H](O)[C@H]4O)[C@@H]1O` (some centres unmarked) [Hygromycin B], in assay [1] (Well no.=5221), the remaining activity at 3.75 µM was determined as 102%. For the same compound, the remaining activity at 1.25 µM in assay [2] (Well no.=5221) is 99.8%.
Take `C[C@H](CCC(=O)O)[C@H]1CC[C@H]2[C@@H]3C[C@H](O)[C@@H]4C[C@H](O)CC[C@]4(C)[C@H]3CC[C@]12C` [Hyodeoxycholic acid]: the remaining activity at 3.75 µM in assay [1] (Well no.=5868) was found to be 101%. The remaining activity at 1.25 µM in assay [2] (Well no.=5868) was 103%.
Regarding `CN1[C@@H]2CC[C@H]1C[C@@H](OC(=O)[C@H](CO)c1ccccc1)C2` [Hyoscyamine], the remaining activity at 3.75 µM in assay [1] (Well no.=3727) was 101%. For the same compound, the remaining activity at 1.25 µM in assay [2] (Well no.=3727) came to 94.8%.
Turning to `COC[C@@]12CC[C@H](OC)[C@@]34[C@@H]5C[C@@]6(O)[C@H](OC(=O)c7ccccc7)[C@@H]5[C@@](OC(C)=O)([C@@H]([C@H](OC)[C@H]13)[C@H]4N(C)C2)[C@@H](O)[C@@H]6OC` [Hypaconitine], the remaining activity at 3.75 µM in assay [1] (Well no.=6450) was 87.8%. Further, the remaining activity at 1.25 µM in assay [2] (Well no.=6450) is 88.9%.
For `Cc1cc(O)c2c(=O)c3c(O)cc(O)c4c5c(O)cc(O)c6c(=O)c7c(O)cc(C)c8c1c2c(c34)c(c78)c65` [Hypericin], the remaining activity at 3.75 µM in assay [1] (Well no.=520) came out at 109%; in assay [1] (Well no.=3725), 97.9%. Moreover, the values for the remaining activity at 1.25 µM in assay [2] (Well no.=520) and in assay [2] (Well no.=3725) were 109% and 96.4%, respectively.
With `COc1c2c3c4c(c(OC)c(=O)c5c(O)cc(OC)c(c6c(OC)cc(O)c(c1=O)c63)c54)[C@@H](C(C)=O)[C@@](C)(O)C2` [Hypocrellin A], the remaining activity at 3.75 µM in assay [1] (Well no.=3645) turned out to be 92.4%. For the same compound, the remaining activity at 1.25 µM in assay [2] (Well no.=3645) was 94%.
`COc1c(O)c2c(=O)cc(OC)c3c4c(OC)cc(=O)c5c(O)c(OC)c6c(c(c1CC(C)=C6C(C)=O)c23)c54` [Hypocrellin B]: the remaining activity at 3.75 µM in assay [1] (Well no.=3691) stood at 103%. Moreover, the remaining activity at 1.25 µM in assay [2] (Well no.=3691) worked out at 100%.
Consider `NCCS(=O)O` [Hypotaurine], for which the results for the remaining activity at 3.75 µM in assay [1] (Well no.=464) and in assay [1] (Well no.=7779) were 102% and 103%, respectively. The remaining activity at 1.25 µM is 102% in assay [2] (Well no.=464) and 106% in assay [2] (Well no.=7779).
For `O=c1[nH]cnc2nc[nH]c12` [Hypoxanthine], the remaining activity at 3.75 µM amounted to 96.5% in assay [1] (Well no.=5246) and 89.6% in assay [1] (Well no.=7269). Also, the remaining activity at 1.25 µM in assay [2] (Well no.=5246) was 96.5%; in assay [2] (Well no.=7269), 91.9%.
Regarding `COc1cc(/C=C(\C#N)C(=O)c2ccc(O)c(O)c2)cc(I)c1O` [I-OMe-Tyrphostin AG 538], the remaining activity at 3.75 µM in assay [1] (Well no.=1420) turned out to be 92.9%. Besides, the remaining activity at 1.25 µM in assay [2] (Well no.=1420) is 93%.
Regarding `CNC(=O)[C@H]1O[C@@H](n2cnc3c(NCc4cccc(I)c4)ncnc32)[C@H](O)[C@@H]1O` [IB-MECA], in assay [1] (Well no.=923), the remaining activity at 3.75 µM came to 99.3%. The remaining activity at 1.25 µM in assay [2] (Well no.=923) came out at 94.3%.
Regarding `COc1cc(OC)c(C=C2C(=O)Nc3ccccc32)c(OC)c1` [IC261], the remaining activity at 3.75 µM in assay [1] (Well no.=2506) was found to be 103%. The remaining activity at 1.25 µM in assay [2] (Well no.=2506) was 103%.
As to `Cc1ccccc1-n1c(Cn2cnc3c(N)ncnc32)nc2cccc(C)c2c1=O` [IC87114], the remaining activity at 3.75 µM in assay [1] (Well no.=2945) was found to be 97.6%. For the same compound, the remaining activity at 1.25 µM in assay [2] (Well no.=2945) was determined as 98.3%.
